Legend:
Raw 264.7 cell line = assay: NO scavenging activity in LPS-treated immune cells (Griess reagent); assay type: cell-based; conditions: 24 hours; for activity at 10 µM: Mus musculus, RAW264.7, Raw 264.7, LPS 500 ng/mL, read-out: NO Scavenging Activity (%) (Mean±SD)
Experimental: Raw 264.7 cell line was seeded in a 48-well plate at a density of 8×10^4 cells/well, and cultured at 37°C in a DMEM medium including 10% FBS, 100 U/mL of penicillin and 100 µg/mL of streptomycin.
The medium was cultured overnight, and then replaced with a fresh medium including 10 µM of the pharmaceutical composition sensitive to nitrogen monoxide including the compound of each of Examples 1 to 30 and 500 ng/mL of LPS, and the fresh medium was cultured again for another 24 hours.
Lastly, in order to measure the amount of NO produced, the amount of NO2^- present in the cell culture medium was measured using a Griess reagent (sulfanilamide, N-1-naphthylethylenediamine dihydrochloride). Specifically, 100 µL of a Griess reagent was mixed with a mixture solution of 50 µL of the cell culture medium and 50 µL of PBS. The mixture solution was reacted for 10 minutes in a well plate, and absorbance thereof at 540 nm was measured.

[1] = DAF-2 assay of NO scavenging activity (NO donor SNAP); assay type: biochemical; conditions: DAF-2 10 µM, SNAP 100 µM, PBS, 3 hours, 37°C
Experimental: NO scavenging activity of the pharmaceutical composition sensitive to nitrogen monoxide including the compound according to each of Examples 1 to 22, 29 to 31, and 33 to 35 was evaluated through a DAF-2 assay.
Specifically, a reagent stock solution was made using DMSO (dimethyl sulfoxide) in order to prepare 5 mM of DAF-2, 100 mM of SNAP and 5 mM of the compound synthesized in each of the Examples, and for the reaction, the solution was added to a PBS (phosphate buffered saline) solution so that DAF-2, SNAP and the compound had final concentrations of 10 µM, 100 µM and the concentration of Table 1, respectively, followed by a reaction for 3 hours in a 37°C incubator.

[2] = DAF-2 assay of NO scavenging activity without and with H2O2 (ROS); assay type: biochemical; conditions: SNAP 100 µM, DAF-2 10 µM, 3 hours, 37°C; for NO Scavenging Activity (%) (Mean±SD) With H2O2: H2O2 1 mM
Experimental: The pharmaceutical composition sensitive to nitrogen monoxide including the compound according to each of Examples 23 to 28 and 32 may have scavenging activity for reactive oxygen species (ROS). NO scavenging activity of the pharmaceutical composition was evaluated through a DAF-2 assay.
Specifically, to a 100 µM solution of SNAP, the compound synthesized in each of the Examples was added at a concentration of the following Table 2, and reacted. Then 10 µM of DAF-2 was added thereto, followed by a reaction for 3 hours in a 37°C incubator.
Additionally, a stock solution of H2O2 (10 M) was added to the reaction solution so that SNAP and H2O2 had final concentrations of 100 µM and 1 mM, respectively. Then, the compound synthesized in each of the Examples was added thereto at a concentration of the following Table 11, followed by a reaction in the same manner, and NO scavenging activity was calculated by Equation 1.

With `C[C@@H]1CCN(C(=O)CC#N)C[C@@H]1N(C)c1ncnc2c1ccn2C(=O)N(C)CCN(C)C(=O)Nc1ccc(O)cc1N` [Example 19, N-(2-(3-(2-amino-4-hydroxyphenyl)-1-methylureido)ethyl)-4-(((3R,4R)-1-(2-cyanoacetyl)-4-methylpiperidin-3-yl) (methyl)amino)-N-methyl-7H-pyrrolo[2,3-d]pyrimidine-7-carboxamide] as the molecule, how does the activity at 10 µM (Raw 264.7 cell line) read?
Its activity at 10 µM is 54.1 ± 2.51%.

For “cyanocobalamin [Vitamin B12, reference compound]”, which “NO Scavenging Activity (%) (Mean±SD)” value ([1]; compound 1 µM) is on record?
The value was 3.18± 1.03%.

What about the “NO Scavenging Activity (%) (Mean±SD)” value ([1]; compound 5 µM) of the same molecule?
The value was 8.98± 2.46%.

And the “NO Scavenging Activity (%) (Mean±SD)” value ([1]; compound 10 µM)?
The value was 12.37 ±3.73%.

And the “NO Scavenging Activity (%) (Mean±SD)” value ([1]; compound 100 µM)?
The value was 41.09 ±1.57%.

And the “NO Scavenging Activity (%) (Mean±SD)” value ([1]; compound 1,000 µM)?
Its value is 99.48 ±0.95%.

Which “NO Scavenging Activity (%) (Mean±SD)” value ([1]; compound 1 µM) does the source give for `CC1CC2C3CCC4=CC(=O)C=CC4(C)C3(F)C(O)CC2(C)C1(O)C(=O)COC(=O)Nc1ccccc1N` (centres unmarked) [Example 33, 2-(9-fluoro-11,17-dihydroxy-10,13,16-trimethyl-3-oxo-6,7,8,9,10,11,12,13,14,15,16,17-dodecahydro-3H-cyclopenta[a]phenanthren-17-yl)-2-oxoethyl (2-aminophenyl) carbamate] here?
The value was 2.22± 4.76%.

What about the “NO Scavenging Activity (%) (Mean±SD)” value ([1]; compound 5 µM) of the same molecule?
Its value is 1.72± 4.28%.

What about the “NO Scavenging Activity (%) (Mean±SD)” value ([1]; compound 10 µM) of the same molecule?
Its value is 1.52± 10.22%.

Which “NO Scavenging Activity (%) (Mean±SD)” value ([1]; compound 1 µM) does the source give for `CC[C@@H]1CN(C(=O)NCC(F)(F)F)C[C@@H]1c1cnc2cnc3c(ccn3C(=O)Nc3cc4c(cc3N)n(C)c(=O)n4C)n12` [Example 31, N-(6-amino-1,3-dimethyl-2-oxo-2,3-dihydro-1H-benzo[d]imidazol-5-yl)-8-((3R,4S)-4-ethyl-1-((2,2,2-trifluoroethyl)carbamoyl)pyrrolidin-3-yl)-3H-imidazo[1,2-a]pyrrolo[2,3-e]pyrazine-3-carboxamide] here?
The value was 79.61 ±3.60%.

And the “NO Scavenging Activity (%) (Mean±SD)” value ([1]; compound 5 µM)?
Its value is 90.34 ±0.98%.

What about the “NO Scavenging Activity (%) (Mean±SD)” value ([1]; compound 10 µM) of the same molecule?
The value was 92.21 ±0.98%.

For `Cc1ccc(NC(=O)OCC(=O)C2(O)C(C)CC3C4CCC5=CC(=O)C=CC5(C)C4(F)C(O)CC32C)c(N)c1` (centres unmarked) [Example 34, 2-(9-fluoro-11,17-dihydroxy-10,13,16-trimethyl-3-oxo-6,7,8,9,10,11,12,13,14,15,16,17-dodecahydro-3H-cyclopenta[a]phenanthren-17-yl)-2-oxoethyl (2-amino-4-methylphenyl) carbamate], which “NO Scavenging Activity (%) (Mean±SD)” value ([1]; compound 10 µM) is on record?
Its value is 0.76± 5.81%.

For `CC[C@@H]1CN(C(=O)NCC(F)(F)F)C[C@@H]1c1cnc2cnc3c(ccn3C(=O)Nc3cc4c(cc3NC(=O)OCc3ccc(B(O)O)cc3)n(C)c(=O)n4C)n12` [Example 32, (4-((((6-(8-((3R,4S)-4-ethyl-1-((2,2,2-trifluoroethyl)carbamoyl)pyrrolidin-3-yl)-3H-imidazo[1,2-a]pyrrolo[2,3-e]pyrazine-3-carboxamido)-1,3-dimethyl-2-oxo-2,3-dihydro-1H-benzo[d]imidazol-5-yl)carbamoyl)oxy)methyl)phenyl)boronic acid], which “NO Scavenging Activity (%) (Mean±SD) Without H2O2” value ([2]; compound 1 µM) is on record?
The value was 6.42± 10.86%.

And the “NO Scavenging Activity (%) (Mean±SD) With H2O2” value ([2]; compound 1 µM)?
Its value is 4.05± 3.57%.

What about the “NO Scavenging Activity (%) (Mean±SD) Without H2O2” value ([2]; compound 5 µM) of the same molecule?
The value was 6.84± 5.21%.

What about the “NO Scavenging Activity (%) (Mean±SD) With H2O2” value ([2]; compound 5 µM) of the same molecule?
The value was 29.92 ±7.09%.

What about the “NO Scavenging Activity (%) (Mean±SD) Without H2O2” value ([2]; compound 10 µM) of the same molecule?
Its value is 9.26± 5.51%.

What about the “NO Scavenging Activity (%) (Mean±SD) With H2O2” value ([2]; compound 10 µM) of the same molecule?
Its value is 32.06 ±3.99%.

With `C[C@@H]1CCN(C(=O)CC#N)C[C@@H]1N(C)c1ncnc2c1ccn2C(=O)Nc1ccc(O)cc1N` [Example 8, N-(2-amino-4-hydroxyphenyl)-4-(((3R,4R)-1-(2-cyanoacetyl)-4-methylpiperidin-3-yl)(methyl)amino)-7H-pyrrolo[2,3-d]pyrimidine-7-carboxamide] as the molecule, how does the activity at 10 µM (Raw 264.7 cell line) read?
The activity at 10 µM was 72.6 ± 0.31%.

With `COc1ccc(NC(=O)N(C)CCN(C)C(=O)n2ccc3c(N(C)[C@H]4CN(C(=O)CC#N)CC[C@H]4C)ncnc32)c(N)c1` [Example 17, N-(2-(3-(2-amino-4-methoxyphenyl)-1-methylureido)ethyl)-4-(((3R,4R)-1-(2-cyanoacetyl)-4-methylpiperidin-3-yl) (methyl)amino)-N-methyl-7H-pyrrolo[2,3-d]pyrimidine-7-carboxamide] as the molecule, how does the activity at 10 µM (Raw 264.7 cell line) read?
Its activity at 10 µM is 29.6 ± 2.95%.

Which “NO Scavenging Activity (%) (Mean±SD)” value (Raw 264.7 cell line; 10 µM, Raw 264.7, LPS 500 ng/mL) does the source give for “N-(2-(3-(2-amino-5-hydroxyphenyl)-1-methylureido)ethyl)-4-(((1S,2R)-5-(2-cyanoacetyl)-2-methylcyclohexyl) (methyl)amino)-N-methyl-7H-pyrrolo[2,3-d]pyrimidine-7-carboxamide [Example 20]” here?
Its value is 59.5±0.11%.

For `C[C@@H]1CCN(C(=O)CC#N)C[C@@H]1N(C)c1ncnc2c1ccn2C(=O)N(C)CCN(C)C(=O)Nc1ccccc1N` [Example 14, N-(2-(3-(2-aminophenyl)-1-methylureido)ethyl)-4-(((3R,4R)-1-(2-cyanoacetyl)-4-methylpiperidin-3-yl)(methyl)amino)-N-methyl-7H-pyrrolo[2,3-d]pyrimidine-7-carboxamide], which activity at 10 µM (Raw 264.7 cell line) is on record?
The activity at 10 µM was 46 ± 2.52%.

For `C[C@@H]1CCN(C(=O)CC#N)C[C@@H]1N(C)c1ncnc2c1ccn2C(=O)Nc1cc(O)ccc1N` [Example 9, N-(2-amino-5-hydroxyphenyl)-4-(((3R,4R)-1-(2-cyanoacetyl)-4-methylpiperidin-3-yl)(methyl)amino)-7H-pyrrolo[2,3-d]pyrimidine-7-carboxamide], which activity at 10 µM (Raw 264.7 cell line) is on record?
Its activity at 10 µM is 78.9 ± 0.21%.

For `COc1ccc(NC(=O)n2ccc3c(N(C)[C@H]4CN(C(=O)CC#N)CC[C@H]4C)ncnc32)c(N)c1` [Example 6, N-(2-amino-4-methoxyphenyl)-4-(((3R,4R)-1-(2-cyanoacetyl)-4-methylpiperidin-3-yl)(methyl)amino)-7H-pyrrolo[2,3-d]pyrimidine-7-carboxamide], which activity at 10 µM (Raw 264.7 cell line) is on record?
The activity at 10 µM was 68.5 ± 0.11%.

Which activity at 10 µM (Raw 264.7 cell line) does the source give for `COc1ccc(N)c(NC(=O)n2ccc3c(N(C)[C@H]4CN(C(=O)CC#N)CC[C@H]4C)ncnc32)c1` [Example 7, N-(2-amino-5-methoxyphenyl)-4-(((3R,4R)-1-(2-cyanoacetyl)-4-methylpiperidin-3-yl)(methyl)amino)-7H-pyrrolo[2,3-d]pyrimidine-7-carboxamide] here?
Its activity at 10 µM is 88.2 ± 0.06%.

Source: patent publication EP4741395A1, “NOVEL COMPOUND SENSITIVE TO NITROGEN MONOXIDE AND PHARMACEUTICAL COMPOSITION COMPRISING SAME” (Omniamed Co. Ltd, priority 2023, dated 2025)
